Results from patent US20060074103A1, “Cyclic beta-amino acid derivatives as factor Xa inhibitors” (priority 2004, published 2006).

A melting point of 301 to 303 °C was found for O=C(N[C@H]1CCCC[C@@H]1C(=O)Nc1ccc(Cl)cn1)c1ccc(-n2ccccc2=O)cc1 [Example 1] in this work.
